Key:
[1] = Preliminary pharmacokinetics, liver concentration; format: in vivo; conditions: ip, 2 h after single dose 30 mg/kg I.P., read-out: compound concentration in the liver
PGC-1α [2] = target: T1, PGC-1α (Mus musculus, UniProt O70343); test: AlphaLisa PGC-1α acetylation screen in U-2 OS cells over expressing PGC-1α and GCN5; format: cell-based; set-up: expressed in transfected cells; host or cells: U-2 OS cells infected with Ad-PGC-1α and Ad-GCN5
T1 sequence (O70343 1-797): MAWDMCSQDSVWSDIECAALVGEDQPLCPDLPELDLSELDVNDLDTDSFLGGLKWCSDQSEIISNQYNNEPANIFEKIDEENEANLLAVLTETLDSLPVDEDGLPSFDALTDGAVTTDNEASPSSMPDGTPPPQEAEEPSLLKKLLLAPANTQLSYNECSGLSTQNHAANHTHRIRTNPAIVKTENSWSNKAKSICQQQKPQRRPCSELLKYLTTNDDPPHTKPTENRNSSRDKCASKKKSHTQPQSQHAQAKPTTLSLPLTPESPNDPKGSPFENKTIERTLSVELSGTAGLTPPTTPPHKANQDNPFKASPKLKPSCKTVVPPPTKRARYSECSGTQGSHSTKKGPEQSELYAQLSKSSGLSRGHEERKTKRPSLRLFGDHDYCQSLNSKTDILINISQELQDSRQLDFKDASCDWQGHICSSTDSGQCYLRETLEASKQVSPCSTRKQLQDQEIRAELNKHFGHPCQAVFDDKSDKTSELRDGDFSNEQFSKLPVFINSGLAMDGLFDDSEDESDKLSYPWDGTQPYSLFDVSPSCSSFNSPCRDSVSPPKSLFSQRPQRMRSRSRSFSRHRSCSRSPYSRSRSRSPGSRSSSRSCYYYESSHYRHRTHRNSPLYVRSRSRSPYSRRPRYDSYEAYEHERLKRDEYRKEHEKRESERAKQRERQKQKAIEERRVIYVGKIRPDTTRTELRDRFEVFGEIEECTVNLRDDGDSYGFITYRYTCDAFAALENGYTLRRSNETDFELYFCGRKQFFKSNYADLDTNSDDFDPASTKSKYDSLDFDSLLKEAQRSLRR
Protocol: U-2 OS cells were thawed and grown in 4 Triple flasks (NUNC) with growth medium. After 48 hours, cells were harvested and seeded in 4 Hyper flasks at a density of 15-20 million cell each. Cells were then grown for 4-5 days until reached confluency. After reaching the desired confluency, medium was changed to assay medium and cells were infected with Ad-PGC-1α and Ad-GCN5 for 4 hours. Following infection, medium was changed to phenol-free medium and cells were incubated overnight. The following day, cells were harvested and seeded on a 384-well plate at 7000 cells/well in […] assay media. Cells were allowed to adhere for 4-8 hours after which 100 nl of compound was added. After overnight incubation with compound, media was aspirated and cells were incubated with lysis buffer for 1 hour at RT. […] Perkin Elmer EnVision plate reader was used for signal detection using Alpha protocol. For each compound, activity score was calculated based on the mean of the normalized and corrected sample activity replicates. […] For each sample the highest valid tested concentration was determined and set as Maximum concentration. […] AC values were calculated using the curve fitting strategies in Genedata Screener Condoseo (7.0.3) and up to the active concentration limit (Maximum concentration) described for each sample. […]

primary hepatocytes = test: Glucose production by primary hepatocytes (glucagon or Ad-PGC-1α); format: cell-based, mouse; conditions: for glucose release to culture medium compared to control: hepatocytes ectopically expressing PGC-1α, overnight treatment, pyruvate/lactate
Protocol: (§1) For measurement of acetylation, gene expression and glucose production SR-18292 ([…]) was added to cells overnight and fresh compound was added the following day for additional 3 h before collecting the cells (for total of ˜18 h treatment). Where insulin and glucagon stimulation were performed, the medium was changed to starvation medium (DMEM, 0.2% BSA, 2 mM sodium pyruvate, and 1% penicillin/streptomycin) with fresh compound for the last 3 h and cells were stimulated with either 100 nM insulin or 200 nM glucagon for an extra 1.5 h. For glucose measurements following PGC-1α over expression cells were incubated for the last 3 h in glucose-free medium (phenol-red/glucose free DMEM, 0.2% BSA, 2 mM sodium pyruvate and 20 mM sodium lactate or 10 mM glycerol in case glycerol was used as substrate). For glucose measurements following glucagon stimulation cells were incubated for the last 4 h in the same glucose-free medium that also contained glucagon (200 nM). The glucose level in the medium was measured using a glucose assay kit from Eton Bioscience Inc. by adding […] of assay buffer to […] of medium followed by 15 min incubation at 37° C. Absorbance was measured at 490 nm.
PGC-1α activates hepatic gluconeogenic gene expression, and an increase in its acetylation status reduces expression of both Pck1 and G6pc genes (Rodgers et al., 2005; Yoon et al., 2001). […] Thus, a high-throughput screen with these 252 compounds at different doses was performed. Briefly, Hepatocytes were treated with forskolin for 1.5 hours to induce the expression of both Pck1 and G6pc genes, which mimics the fasting and PGC-1α-mediated gluconeogenic response. The dose response curves were used to calculate an inhibitory activity of the compounds by determining the difference in Ct values between compound treatment and forskolin control at each dose, and provided an estimated potency of the compounds in suppressing Pck1 and G6pc (FIGS. 4, 34). […] To specifically test the inhibitory activity of the remaining small molecule positive hits on PGC-1α-mediated glucose production, adenoviruses to ectopically express PGC-1α in primary hepatocytes were used. Similar to forskolin, PGC-1α overexpression induces gluconeogenic gene expression and promotes glucose release. Primary hepatocytes were treated with the chosen positive hit compounds that could suppress gluconeogenic gene expression, and the concentration of glucose released to the culture medium was measured.

[3] = Bioavailability (data not shown)
[4] = Solubility (data not shown); format: physicochemical
PGC-1α [5] = target: T1, PGC-1α; test: Western blot of PGC-1α acetylation in U-2 OS cells (analog comparison); format: cell-based; set-up: expressed in transfected cells; host or cells: U-2 OS cells infected with Ad-PGC-1α and Ad-GCN5; dose or concentration left out as unconfirmed; conditions: Ad-PGC-1α and Ad-GCN5, 18 h
Protocol: U-2 OS cells were infected with Ad-PGC-1α and Ad-GCN5 and treated with the indicated compound for 18 h. PGC-1α was immunoprecipitated using FLAG beads.
For PGC-1α acetylation detection in hepatocytes cells were infected with Ad-PGC-1α and Ad-GCN5. Cells were collected in RIPA buffer (containing protease inhibitor cocktail, 5 mM NaF, 5 mM β-glycerophosphate, 10 mM nicotinamide, 1 mM DTT and 1 μM trichostatin A). FLAG-HA-PGC-1α was immunoprecipitated overnight at 4° C. with FLAG beads (Sigma A2220). For GCN5 interaction with PGC-1α, U-2 OS cells were infected with Ad-PGC-1α. Nuclear extracts were obtained by lysing cell in Buffer A (10 mM HEPES-KOH (pH 7.9), 10 mM KCl, 1.5 mM MgCl2, 0.5 mM DTT, 0.25% IGEPAL (v/v), 5 mM NaF, 5 mM β-glycerophosphate, 5 mM sodium butyrate and 10 mM nicotinamide), supplemented with Protease Inhibitor Cocktail. Once cytoplasmic fractions were separated, nuclear pellets were lysed in Buffer B (20 mM HEPES-KOH (pH 7.9), 125 mM NaCl, 1 mM EDTA, 1 mM DTT, 1% IGEPAL (v/v), 10% glycerol (v/v), 5 mM NaF, 5 mM β-glycerophosphate, 5 mM sodium butyrate and 10 mM nicotinamide), supplemented with Protease Inhibitor Cocktail. FLAG-HA-PGC-1α was immunoprecipitated with FLAG beads overnight at 4° C. All beads were washed at last 3 times in lysis buffer before eluting in sample loading buffer.

[6] = test system: Pck1 and G6pc gene expression; test: Gluconeogenic gene and protein expression in primary hepatocytes (qPCR, western); format: cell-based, mouse; set-up: effect on glucagon or PGC-1α-increased Pck1 and G6pc expression, relative to SR-18292: dose or concentration left out as unconfirmed; conditions: 18 h, glucagon or Ad-PGC-1α
Protocol: as §1
siRNA oligos against mouse Ppargc1a were purchased from OriGene (SR420231). Hepatocytes were transfected with a 1:1:1:mixture of 3 unique 27mer siRNA duplexes ([…]) using Lipofectamin RNAiMax (Invitrogen) immediately upon seeding with plating medium. The following morning cells were washed with PBS and medium was changed to maintenance medium. In the afternoon, cells were transfected again and compound treatment started.
Total RNA was extracted from cells or pulverized liver using TRIzol reagent (Ambion, Life Technologies), followed by cDNA preparation from 2 μg of total RNA with a High-Capacity cDNA Reverse Transcription Kit (Applied Biosystems). cDNA products were quantified by real-time PCR using Power SYBR Green PCR Master Mix (Applied Biosystems) on a CFX384 Real-Time PCR System (Bio-Rad). To calculate IC50 from C-80 dose response, curves were fit to the hill equation in a similar manner used to calculate estimated AC50 from the high-throughput qPCR screen. However, unlike the curves from the qPCR high-throughput screen, values of relative repression were used rather than of delta-Ct.

SMILES: Cc1ccc(CN(CC(O)COc2cccc3[nH]cc(C)c23)C(C)(C)C)cc1 (stereo not drawn) [Compound C-80]
- concentration at 2 h [1]: 2300 nM
- potency in a confirmatory screen (PGC-1α [2]): highest potency
- glucose release to culture medium compared to control (primary hepatocytes): next most potent small molecule

SMILES: Cc1nc(N2CCN(S(=O)(=O)c3ccc(F)cc3)CC2)c2c(-c3cccs3)csc2n1 [Compound C-82]
- bioavailability [3]: poor
- solubility [4]: poor
- glucose release to culture medium compared to control (primary hepatocytes): top small molecule hit suppressing glucose production

SMILES: Cc1ccc(CN(CC(O)COc2ccccc2)C(C)(C)C)cc1 (stereo not drawn) [SR-19138]
- ability to induce acetylation of PGC-1α compared to SR-18292 (PGC-1α [5]): reduced ability to induce acetylation of PGC-1α
- effect on glucagon or PGC-1α-increased Pck1 and G6pc expression, relative to SR-18292 [6]: reduced the inhibitory effect

SMILES: CN(C)C(=N)N=C(N)N [metformin, reference compound]
- concentration able to suppress glucose production (primary hepatocytes; hepatocytes): 100 to 250 µM

Source: US11247970B2, “Selective inhibition of gluconeogenic activity” (Dana-Farber Cancer Institute, Inc., priority 2017, dated 2022)
